Source: patent US20230257480A1, “ENHANCING BLOOD-BRAIN BARRIER DRUG TRANSPORT BY TARGETING ENDOGENOUS REGULATORS” (THE BOARD OF TRUSTEES OF THE LELAND STANFORD JUNIOR …, priority 2019, published 2023)

Target: T1, ALPL (Mus musculus, UniProt P09242)
T1 construct: from tissue; host or cells: brain sections (cerebral cortex vasculature) of aged C57BL/6 mice dosed in vivo
T1 sequence (P09242 18-501): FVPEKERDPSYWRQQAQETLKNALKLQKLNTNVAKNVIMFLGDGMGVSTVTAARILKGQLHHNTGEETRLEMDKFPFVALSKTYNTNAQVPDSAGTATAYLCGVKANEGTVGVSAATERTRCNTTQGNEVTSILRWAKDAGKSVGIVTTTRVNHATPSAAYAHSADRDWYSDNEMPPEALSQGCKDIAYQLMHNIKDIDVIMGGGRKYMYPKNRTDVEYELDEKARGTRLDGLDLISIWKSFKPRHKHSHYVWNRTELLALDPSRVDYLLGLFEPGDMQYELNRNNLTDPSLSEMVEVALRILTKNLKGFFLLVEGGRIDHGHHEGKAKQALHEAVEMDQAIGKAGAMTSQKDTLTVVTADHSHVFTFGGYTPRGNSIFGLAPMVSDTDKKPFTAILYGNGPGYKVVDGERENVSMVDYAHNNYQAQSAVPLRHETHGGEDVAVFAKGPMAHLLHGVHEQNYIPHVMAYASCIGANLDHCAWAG
Assay: ALPL activity in the cerebral cortex vasculature (Red Alkaline Phosphatase Substrate Kit)
Assay type: in vivo
Conditions: aged (22 m.o.) mice, 8.75 mg/kg intraperitoneally twice per day for three days, vs vehicle
From the text: FIG. 12A is a dot plot representation of cell-surface, druggable gene candidates on brain endothelial cells. Genes were plotted by their degree of blood-brain barrier specificity (Daneman et al., PLoS One (2010). doi:10.1371/journal.pone.0013741) and correlation with plasma uptake. Genes were colored by their upregulation (brown) or downregulation (green) with age. FIG. 12B includes representative images of calcified nodules (Alizarin red staining) detected in aged (23 m.o.—bottom panel) but not young (3 m.o.—top panel) mice, recapitulating nodules seen in pericyte-deficient Pdgfbret/ret mice (Keller et al., Nat. Genet. (2013). doi:10.1038/ng.2723) (representative image of n=5 mice per age). […] FIG. 12E is a graph illustrating quantification of ALPL expression in the cerebral cortex vasculature of young (3 m.o.) and aged (23 m.o.) mice (n=7, two-sided t-test; mean+/−s.e.m.). […] Uptake in the brain endothelium and parenchyma was assessed by flow cytometry and confocal microscopy of the cortex and hippocampus. […] FIG. 12H is a graph illustrating quantification of ALPL activity in the cerebral cortex vasculature of aged (22 m.o.) mice treated with ALPL inhibitor (anti-ALPL) or vehicle and in young (3 m.o.) mice (n=6-9, one-way ANOVA with Tukey's multiple comparisons correction; mean+/−s.e.m.). […]

ALPL activity in the aged brain vasculature: decreased
SMILES: COc1ccc(OC)c(S(=O)(=O)Nc2cnc3ccccc3c2)c1 [ALPL inhibitor, 2,5-Dimethoxy-N-(quinolin-3-yl)benzenesulfonamide]
